Reference: paper PMC11312998, “Molecular Pro-Apoptotic Activities of Flavanone Derivatives in Cyclodextrin Complexes: New Implications for Anticancer Therapy” (International Journal of Molecular Sciences, 2024)
≈ marks a conversion by molar mass, not a printed value. Read-outs that look alike come from different tables or passages of the source. One block for each compound: values may come before it.

How the values were obtained:
[1] = Isothermal titration calorimetry (ITC) of inclusion complex formation; assay type: physicochemical; conditions: DMSO, 25 °C
Method: Measurements were carried out using a MicroCal VP-ITC100 microcalorimeter equipped with a 1400 μL measurement cell. All titrations were carried out under isothermal conditions at 25 degrees C in DMSO solution, which was used as a solvent. The mixing speed during the measurements was 351 rpm. The 0.2 mM solution of the ligand (3, 3a and 5) located in the measurement cell was titrated with the cyclodextrin solution located in the syringe. Each measurement consisted of 50 injections of cyclodextrin with a volume of 5 uL and a concentration of 5 mM. The interval between individual injections was 300 s. The effect of direct interaction of the ligand with CD was calculated by subtracting the thermal effects of diluting 5 mM cyclodextrin in a pure solvent. The dilution effect of the 0.2 mM ligand solution was negligible. The results obtained were processed in the MicroCall Origin 7 software. Using a single active site model (ITC Tutorial Guide), the stability constant K of the resulting complex, its stoichiometry n and thermodynamic parameters that describe the ongoing process were determined, viz., enthalpy (ΔH), Gibbs free energy (ΔG) and entropy (ΔS).

[2] = Water solubility by UV–Vis spectrophotometry (phase solubility with cyclodextrins); assay type: physicochemical; conditions: 25 °C, thermodynamic from solid, 298.15 K, without cyclodextrin, read-out: Solubility in H2O
Method: Spectrophotometric measurements were performed using a SPECORD 50 single-beam UV–Vis spectrophotometer (Analyst Jena, Thuringia, Germany). The calibration lines of the compounds tested were determined for the concentration range of 3.0 × 10^−6 M to 1 × 10^−4 M (Figure 21). The molar extinction coefficients for 3, 3a, and 5 were determined experimentally in an aqueous ethanol solution; the relevant maximum wavelengths are presented in Table 9. The influence of α-cyclodextrins, β-cyclodextrins and HP-β-cyclodextrins on the solubility of the tested ligands in water was evaluated in three measurement series. Briefly, excess ligand was introduced into closed Eppendorff tubes containing α-CD, β-CD or HP-β-CD solutions, at concentrations ranging from 1 to 90 mM for α-CD and HP-β-CD and from 1 to 15 mM for β-CD. The test tubes were stored for 10 days at a temperature of 298.15 K until equilibrium was achieved. After this time, the solutions were centrifuged using a Microcentrifuge MPW-55 at 13,000 rpm for five minutes. For testing, a clear solution was taken from above the sediment and diluted appropriately so that the spectrum was within the operating range of the spectrophotometer.

Ishikawa = assay: MTT cytotoxicity assay; assay type: cell-based; conditions: Homo sapiens, Ishikawa, 24 h incubation, mean ± SEM
Method: (§1) Cell viability was determined using the metabolic microplate spectrophotometric assay with Methylthiazolyl diphenyltetrazolium bromide (MTT), i.e., 3-(4,5-Dimethyl-2-thiazolyl)-2,5-diphenyl-2H-tetrazolium bromide (Sigma-Aldrich; St. Louis, MO, USA). The anticancer activity of the investigated compounds was evaluated in vitro on the basis of their ability to inhibit the proliferation of various cancer cells. The appropriate number of cells for a given cell line (6–8 × 10^3 cells/mL) were seeded into sterile, colorless 96-well microplates. After 24 h of culture, specific wells of the microplate were treated with test compounds (10–200 µmol/L concentration) and incubated in a CO2 incubator for 24 h. The medium was then removed, the cell monolayer was washed twice with sterile PBS solution and fresh culture medium was added to the wells of the microplate.
(§2) After 48 h of cell culture, the MTT test was conducted. In each well of the microplate, 50 µL of tetrazolium salt solution (final concentration 0.05 mg/mL) was added. The microplate was then placed in a CO2 incubator for 3–4 h (depending on the cell line). Following incubation, 100 µL of DMSO (dimethyl sulfoxide, Sigma-Aldrich, St. Louis, MO, USA) was added to the microplate wells to dissolve the purple formazan crystals formed in the environment of living cells. The absorbance of the formazan solution was read at a wavelength of λ = 580 nm and a reference wavelength of λ = 720 nm after gentle mixing (Biotek Power Wave HT, Biotek Instruments, Winooski, VT, USA).
The percentage of live cells was calculated by comparing the absorbance value of the tested samples with that of the control (cells not treated with compounds). Control absorbance was arbitrarily considered to be 100%. […]

cancer cells = assay: Reactive oxygen species generation (results not published); assay type: cell-based
Hec-1-A = assay: MTT cytotoxicity assay; assay type: cell-based; conditions: Homo sapiens, 24 h incubation, mean ± SEM
Method: as §1, §2
(§3) The percentage of live cells was calculated by comparing the absorbance value of the tested samples with that of the control (cells not treated with compounds). Control absorbance was arbitrarily considered to be 100%.
(§4) In order to determine the contribution of ROS to the cytotoxicity of the tested compounds, the cells were pre-incubated for 1 h with the antioxidant vitamin E (Trolox, Sigma-Aldrich; St. Louis, MO, USA). Cells were seeded into sterile, colorless 96-well microplates at a concentration of 6–8 × 10^3 cells/mL, depending on the cell line. After 24 h of culture, Trolox was added at a final concentration of 50 μM/well. After 1 h of incubation, the antioxidant was washed off, then appropriate concentrations of test compounds (10–200 µmol/L concentration) were added to fresh cell culture medium and incubated for 24 h. The MTT test was then performed under identical experimental conditions, as described in Section 3.1.2.

MCF-7 = assay: MTT cytotoxicity assay; assay type: cell-based; conditions: Homo sapiens, MCF7, 24 h incubation, mean ± SEM
Method: as §1, §2, §3, §4

HCC38 = assay: MTT cytotoxicity assay; assay type: cell-based; conditions: Homo sapiens, 24 h incubation, mean ± SEM
Method: as §1, §2, §3, §4

MDA-MB-231 = assay: MTT cytotoxicity assay; assay type: cell-based; conditions: Homo sapiens, 24 h incubation, mean ± SEM
Method: as §1, §2, §3, §4

[3] = system: breast cancer cells (MCF-7, MDA-MB-231 and HCC38) and endometrial cancer cells (Ishikawa, Hec-1-A); assay: MTT cytotoxicity assay, summary over the cell lines; assay type: cell-based, human; conditions: for cytotoxic activity (in words): range of 10–200 µM, all cancer lines
Method: as §1, §2
The percentage of live cells was calculated by comparing the absorbance value of the tested samples with that of the control (cells not treated with compounds). Control absorbance was arbitrarily considered to be 100%. […] Moreover, cisplatin (Sigma-Aldrich, St. Louis, MO, USA) was used as a reference compound, and identical incubation conditions were used as described above.

RBCs = assay: Erythrocyte morphology, phase contrast microscopy; assay type: cell-based, human; conditions: all tested concentrations; 24 h, 37 °C
Method: The experiments on human blood were performed in accordance with Polish national guidelines, and the study protocols were approved by the Bioethics Committee of the Medical University of Lodz, Poland: approval no (RNN/104/20/KE). The blood samples were obtained from healthy donors at the Blood Donation Centre in Lodz. The procedure for […] for erythrotoxicity studies is given in a previous paper. The influence of the synthesized compounds, together with a reference compound on RBC membrane integrity, was performed by lysis assay, described elsewhere. Briefly, 2% RBC suspension in 0.9% NaCl was incubated at 37 °C for 24 h with the tested compounds at concentrations of 100 µmol/L, 50 µmol/L, 25 µmol/L, 10 µmol/L and 1 µmol/L. The samples were centrifuged at 3000 rpm for 10 min, and the absorbance of the supernatant was measured at 550 nm. The results are presented as a percentage of hemolysis where a sample containing 10 μL of 2.0% v/v Triton X-100 was regarded as a positive control contributing to 100% of hemolysis. A sample containing saline solution represented the spontaneous hemolysis of RBCs (control). The experiments were conducted using at least three different biological materials (n = 3). […] Additionally, erythrocyte morphology was evaluated using a phase contrast Opta-Tech inverted microscope at 400× magnification.

[4] = MTT cytotoxicity assay, model of normal cells; assay type: cell-based; conditions: human, HMEC-1 cells (model of normal cells), 24 h incubation, mean ± SEM, read-out: Cytotoxic effect of analogues incorporated in cyclodextrins and cyclodextrin, IC50
Method: as §1, §2, §3

[5] = read-out: Cytotoxic effect, IC50
[6] = read-out: Cytotoxic effect of analogues incorporated in cyclodextrins and cyclodextrin, IC50

K (formation constant) ([1]; HP-β-cyclodextrin): 5.66 × 10^3 ± 390
n (stoichiometry) ([1]; HP-β-cyclodextrin): 0.98 ± 0.09
ΔG ([1]; HP-β-cyclodextrin): −21,420.7 J mol^−1
ΔH ([1]; HP-β-cyclodextrin): -0.185 ± 0.0141 kcal/mol
ΔS ([1]; HP-β-cyclodextrin): 69.3 J mol^−1K^−1
K (formation constant) ([1]; α-cyclodextrin): 1.51 × 10^3 ± 130
n (stoichiometry) ([1]; α-cyclodextrin): 0.85 ± 0.13
ΔG ([1]; α-cyclodextrin): −18,145.5 J mol^−1
ΔH ([1]; α-cyclodextrin): -0.0669 ± 0.021 kcal/mol
ΔS ([1]; α-cyclodextrin): 59.9 J mol^−1K^−1
K (formation constant) ([1]; β-cyclodextrin): 2.49 × 10^3 ± 200
n (stoichiometry) ([1]; β-cyclodextrin): 0.92 ± 0.11
ΔG ([1]; β-cyclodextrin): −19,385.4 J mol^−1
ΔH ([1]; β-cyclodextrin): -0.202 ± 0.017 kcal/mol
ΔS ([1]; β-cyclodextrin): 62.2 J mol^−1K^−1
solubility at 10 days [2]: 1.55 µM (≈ 0.596 µg/mL)
SMILES: COc1cccc(C2CN=NC23C(=O)c2ccccc2OC3c2ccccc2)c1 (stereo not drawn) [Compound 3a]
IC50 (Ishikawa; [5]): 68.5 ± 4.6 µM
changes in the level of reactive oxygen species generation (in words) (cancer cells): no statistically significant changes
IC50 (Hec-1-A; [5]): 67.2 ± 2.5 µM
IC50 (MCF-7; [5]): 84.2 ± 2.2 µM
IC50 (HCC38; [5]): > 120 µM
IC50 (MDA-MB-231; [5]): > 120 µM
cytotoxic activity (in words) [3]: very weak cytotoxic activity

SMILES: CCN(CC)c1ccc(/C=C2/C(=O)c3ccccc3OC2c2ccccc2)cc1 (stereo not drawn) [Compound 2]
IC50 (Ishikawa; [5]): > 200 µM
changes in the level of reactive oxygen species generation (in words) (cancer cells): no statistically significant changes
IC50 (Hec-1-A; [5]): > 200 µM
IC50 (MCF-7; [5]): 122 ± 6.7 µM
IC50 (HCC38; [5]): > 200 µM
IC50 (MDA-MB-231; [5]): > 200 µM
cytotoxic activity (in words) [3]: very weak cytotoxic activity

SMILES: OC[C@H]1O[C@@H]2O[C@H]3[C@H](O)[C@@H](O)[C@@H](O[C@H]4[C@H](O)[C@@H](O)[C@@H](O[C@H]5[C@H](O)[C@@H](O)[C@@H](O[C@H]6[C@H](O)[C@@H](O)[C@@H](O[C@H]7[C@H](O)[C@@H](O)[C@@H](O[C@H]8[C@H](O)[C@@H](O)[C@@H](O[C@H]1[C@H](O)[C@H]2O)O[C@@H]8CO)O[C@@H]7CO)O[C@@H]6CO)O[C@@H]5CO)O[C@@H]4CO)O[C@@H]3CO [β-CD, β-cyclodextrin, reference compound]
RBC morphology (in words) (RBCs): no pathological changes in RBCs or damaged cells were observed
IC50 (Ishikawa; [6]): > 120 µM
IC50 at 24 h [4]: > 120 µM
IC50 (Hec-1-A; [6]): > 120 µM
IC50 (MCF-7; [6]): > 120 µM
IC50 (HCC38; [6]): > 120 µM
IC50 (MDA-MB-231; [6]): > 120 µM
cytotoxic activity of pure cyclodextrin (in words) ([3]; HMEC-1 endothelial cells or any tested cancer cells, 10–120 µM): not found to demonstrate any cytotoxic activity

SMILES: Cc1ccc(/C=C2/C(=O)c3ccccc3OC2c2ccccc2)cc1 (stereo not drawn) [Compound 4]
IC50 (Ishikawa; [5]): 48.9 ± 6.1 µM
changes in the level of reactive oxygen species generation (in words) (cancer cells): no statistically significant changes
IC50 (Hec-1-A; [5]): 44.6 ± 4.5 µM
IC50 (MCF-7; [5]): 53.4 ± 4.1 µM
IC50 (HCC38; [5]): 93.2 ± 2.8 µM
IC50 (MDA-MB-231; [5]): > 120 µM
cytotoxic activity (in words) [3]: very weak cytotoxic activity
